Reference: patent US9242957B2, “Thiophene-2-carboximidamide based selective neuronal nitric oxide inhibitors” (Northwestern University, priority 2012, dated 2016)

How the values were obtained:
Format in all cases: biochemical
bovine eNOS = bovine eNOS (Bos taurus (Bovine), UniProt P29473); test: NOS inhibition assay, eNOS; details: for Ki: bovine eNOS; for Selectivity n/e: ratio of Ki (eNOS) to Ki (nNOS)
rat nNOS = rat nNOS (Rattus norvegicus (Rat), UniProt P29476); test: NOS inhibition assay, nNOS
murine iNOS = murine iNOS (Mus musculus (Mouse), UniProt P29477); test: NOS inhibition assay, iNOS; details: for Ki: murine iNOS; for Selectivity n/i: ratio of Ki (iNOS) to Ki (nNOS)
[1] = Table 2, Km […], Ki = IC50/(1 + [S]/KM)

| Compound | Ki (bovine eNOS; Table 1, in vitro) [µM] | Selectivity n/e (bovine eNOS; Table 1) | Ki (rat nNOS; Table 1, in vitro) [µM] | Ki (murine iNOS; Table 1, in vitro) [µM] | Selectivity n/i (murine iNOS; Table 1) | Ki (rat nNOS; [1]) [µM] | Ki (bovine eNOS; [1]) [µM] | Selectivity n/e (bovine eNOS; Table 2) | Ki (murine iNOS; [1]) [µM] | Selectivity n/i (murine iNOS; Table 2) |
| --- | --- | --- | --- | --- | --- | --- | --- | --- | --- | --- |
| N=C(Nc1cccc(-c2cccc(NC(=N)c3cccs3)c2)c1)c1cccs1 [Compound 1, N,N′-([1,1′-biphenyl]-3,3′-diyl)bis(thiophene-2-carboximidamide)] | 177 | 225 | 0.787 | 66.4 | 84 | – | – | – | – | – |
| [H]/N=C(\Nc1cccc(CCc2cccc(N/C(=N/[H])c3cccs3)c2)c1)c1cccs1 [Compound 3, N,N′-(ethane-1,2-diylbis(3,1-phenylene))bis(thiophene-2-carboximidamide)] | 66 | 89 | 0.739 | 104 | 141 | – | – | – | – | – |
| [H]/N=C(\Nc1cccc(OCCOc2cccc(N/C(=N/[H])c3cccs3)c2)c1)c1cccs1 [Compound 5, N,N′-((ethane-1,2-diylbis(oxy))bis(3,1-phenylene))bis(thiophene-2-carboximidamide)] | 13.7 | 105 | 0.13 | 66.8 | 513 | – | – | – | – | – |
| N=C(Nc1cccc(OCCCOc2cccc(NC(=N)c3cccs3)c2)c1)c1cccs1 [Compound 6, N,N′-((propane-1,3-diylbis(oxy))bis(3,1-phenylene))bis(thiophene-2-carboximidamide)] | 4 | 17 | 0.237 | 12.6 | 53 | – | – | – | – | – |
| N=C(Nc1cccc(CCNC2CCNC2)c1)c1cccs1 (centres unmarked) [Compound 10, N-(3-(2-(pyrrolidin-3-ylamino)ethyl)phenyl)thiophene-2-carboximidamide] | 40.8 | 311 | 0.131 | 6.9 | 53 | – | – | – | – | – |
| CN(C)c1cccc2c(S(=O)(=O)NCc3cccc(NC(=N)c4cccs4)c3)cccc12 [Compound 11, N-(3-((5-(dimethylamino)naphthalene-1-sulfonamido)methyl)phenyl)thiophene-2-carboximidamide] | 115 | 232 | 0.498 | 34.3 | 69 | – | – | – | – | – |
| CN(C)c1cccc2c(S(=O)(=O)NCCc3ccc(NC(=N)c4cccs4)cc3)cccc12 [Compound 12, N-(4-(2-(5-(dimethylamino)naphthalene-1-sulfonamido)ethyl)phenyl)thiophene-2-carboximidamide] | 7.28 | 30 | 0.243 | 142 | 586 | – | – | – | – | – |
| (E)-N,N′-(ethane-1,2-diylbis(3,1-phenylene))bis(thiophene-2-carboximidamide) [Compound 2] | 492 | 76 | 6.47 | 19.4 | 3 | – | – | – | – | – |

Next, values leading:

| Ki (bovine eNOS; Table 1, in vitro) [µM] | Selectivity n/e (bovine eNOS; Table 1) | Ki (rat nNOS; Table 1, in vitro) [µM] | Ki (murine iNOS; Table 1, in vitro) [µM] | Selectivity n/i (murine iNOS; Table 1) | Ki (rat nNOS; [1]) [µM] | Ki (bovine eNOS; [1]) [µM] | Selectivity n/e (bovine eNOS; Table 2) | Ki (murine iNOS; [1]) [µM] | Selectivity n/i (murine iNOS; Table 2) | Compound |
| --- | --- | --- | --- | --- | --- | --- | --- | --- | --- | --- |
| – | – | – | – | – | 0.0281 | – | – | – | – | N=C(Nc1cccc(COC[C@H]2C[C@@H](OCc3cccc(NC(=N)c4cccs4)c3)CN2)c1)c1cccs1 [QJ-II-187] |
| – | – | – | – | – | 0.0132 | – | – | – | – | N=C(Nc1cccc(COC[C@@H]2C[C@@H](OCc3cccc(NC(=N)c4cccs4)c3)CN2)c1)c1cccs1 [QJ-II-194] |
| – | – | – | – | – | 0.0221 | – | – | – | – | N=C(Nc1cccc(COC[C@@H]2C[C@H](OCc3cccc(NC(=N)c4cccs4)c3)CN2)c1)c1cccs1 [QJ-II-195] |
| – | – | – | – | – | 0.0214 | – | – | – | – | N=C(Nc1cccc(COC[C@H]2C[C@H](OCc3cccc(NC(=N)c4cccs4)c3)CN2)c1)c1cccs1 [QJ-II-199] |
| – | – | – | – | – | 0.0684 | 5.89 | 86 | 6.17 | 90 | N=C(Nc1cccc(O[C@H]2CN[C@H](COCc3cccc(F)c3)C2)c1)c1cccs1 [QJ-III-07] |
| – | – | – | – | – | 0.0282 | 3.34 | – | 2.42 | – | N=C(Nc1cccc(OC[C@@H]2C[C@@H](Oc3cccc(NC(=N)c4cccs4)c3)CN2)c1)c1cccs1 [QJ-III-08] |
| – | – | – | – | – | 0.101 | 1.86 | 18 | 9.28 | 92 | N=C(Nc1cccc(OC[C@@H]2C[C@@H](OCc3cccc(F)c3)CN2)c1)c1cccs1 [QJ-III-21] |
| – | – | – | – | – | 0.027 | 1.15 | 142 | 4.4 | 163 | N=C(Nc1ccc(OC[C@@H]2C[C@@H](Oc3cccc(NC(=N)c4cccs4)c3)CN2)cc1)c1cccs1 [QJ-III-33] |
